Read-outs that look alike come from different tables or passages of the source.
Assays:
Assay in all cases: whole plant or invertebrate
Format in all cases: in vivo
[1] = test system: Spodoptera exigua; conditions: for Spodoptera exigua Mortality (%) / Spodoptera exigua Mortality (%) 500 ppm: 500 ppm, 2nd-instar larvae, leaf immersion feeding; for mortality at 500 ppm: Spodoptera exigua, 24 h, read-out: Spodoptera exigua Mortality (%) 500 ppm; for Spodoptera exigua Mortality (%) 500 ppm: 24 hours
Summary of the method: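 Cabbage leaf discs dipped 5 s in 500 ppm compound (0.05% Tween-80 aqueous), air-dried, fed to about 35 2nd-instar larvae at 28° C, three replicates. Deaths counted at 24 h; mortality corrected against Tween-80 control.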

[2] = test system: Solenopsis invicta; conditions: water test tube poison-feeding; for Solenopsis invicta Mortality (%) 24 h / Solenopsis invicta Mortality (%) 72 h / Solenopsis invicta Mortality (%) 100 ppm 24 h / Solenopsis invicta Mortality (%) 100 ppm 72 h: 100 ppm; for mortality at 100 ppm: Solenopsis invicta
Summary of the method: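 Fire ants fed compound by water test-tube poison-feeding at 100 ppm in aqueous 0.05% Tween-80/5% honey (from 10 g/L DMSO stock), kept at 25 °C. Live and dead ants counted at 24 and 72 h; mortality (%) calculated relative to live ants in the untreated control.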

[3] = test system: Plutella xylostella; conditions: for Plutella xylostella Mortality (%) / Plutella xylostella Mortality (%) 500 ppm: 500 ppm, 2nd-instar larvae, leaf immersion feeding; for mortality at 500 ppm: Plutella xylostella, read-out: Plutella xylostella Mortality (%) 500 ppm
Summary of the method: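 Cabbage leaf discs dipped 5 s in compound at 500 ppm (0.05% Tween-80 aqueous), air-dried, fed to about 35 2nd-instar larvae at 28° C., triplicate. Dead larvae counted after 24 h; mortality (%) corrected against Tween-80 control.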

[4] = test system: Aphis craccivora; conditions: for Aphis craccivora Mortality (%) / Aphis craccivora Mortality (%) 500 ppm: 500 ppm, wingless adults; for Aphis craccivora Mortality (%): immersion 5 seconds, counted after 24 hours; for mortality at 500 ppm: Aphis craccivora, 24 h, read-out: Aphis craccivora Mortality (%) 500 ppm; for Aphis craccivora Mortality (%) 500 ppm: impregnation method, 24 hours
Summary of the method: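 Wingless adults feeding on bean sprouts were dipped with the sprouts for 5 s in 500 ppm compound in aqueous 0.05% Tween-80, air-dried, then held at 23° C. Dead aphids counted after 24 h, triplicate, with 0.05% Tween-80 as control. Mortality (%) = (control live − treated live)/control live × 100.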

[5] = 24 h, read-out: Solenopsis invicta Mortality (%) 100 ppm 24 h, 100 ppm, 24 h
[6] = 72 h, read-out: Solenopsis invicta Mortality (%) 100 ppm 72 h, 100 ppm, 72 h

Row | SMILES | Spodoptera exigua Mortality (%) [1] | Solenopsis invicta Mortality (%) 24 h ([2]; 24 h) | Solenopsis invicta Mortality (%) 72 h ([2]; 72 h) | Plutella xylostella Mortality (%) [3] | Aphis craccivora Mortality (%) [4] | mortality at 500 ppm [1] | mortality at 100 ppm [2, 5] | mortality at 100 ppm [2, 6] | mortality at 500 ppm [3] | mortality at 500 ppm [4] | also measured
1 | CC(=O)C1Nc2c([S+]([O-])C(F)(F)F)c(C(F)(F)F)nn2-c2c(Cl)cc(C(F)(F)F)cc21 (stereo not drawn) [d-112] | 80% | 36% | 99% | 96% | 100% |  |  |  |  |  | 
2 | COC(=O)CC1(C(=O)OC)Nc2c([S+]([O-])C(F)(F)F)c(C(C)=O)nn2-c2c(Cl)cc(C(F)(F)F)cc21 (stereo not drawn) [d-8] | 82% | 15% | 65% | 85% | 90% |  |  |  |  |  | 
3 | CS(=O)(=O)Nc1cc2n(n1)-c1cnccc1C(F)(CC(F)(F)F)N2 (stereo not drawn) [Compound A42] |  |  |  |  |  | 100% | 44% | 100% | 100% | 100% | 
4 | COC(=O)CC1(C#N)Nc2c([S+]([O-])C(F)(F)F)c(C#N)nn2-c2ncc(C(F)(F)F)cc21 (stereo not drawn) [a-56] |  |  |  |  |  |  |  |  |  |  | Spodoptera exigua Mortality (%) 500 ppm [1]: 90%; Solenopsis invicta Mortality (%) 100 ppm 24 h ([2]; 24 h): 16%; Solenopsis invicta Mortality (%) 100 ppm 72 h ([2]; 72 h): 93%; Plutella xylostella Mortality (%) 500 ppm [3]: 100%; Aphis craccivora Mortality (%) 500 ppm [4]: 100%
5 | COC(=O)CC1Nc2c([S+]([O-])C(F)(F)F)c(C(F)(F)F)nn2-c2ncc(C(F)(F)F)cc21 (stereo not drawn) [a-88] |  |  |  |  |  |  |  |  |  |  | Spodoptera exigua Mortality (%) 500 ppm [1]: 100%; Solenopsis invicta Mortality (%) 100 ppm 24 h ([2]; 24 h): 34%; Solenopsis invicta Mortality (%) 100 ppm 72 h ([2]; 72 h): 100%; Plutella xylostella Mortality (%) 500 ppm [3]: 100%; Aphis craccivora Mortality (%) 500 ppm [4]: 100%
6 | COC(=O)CC1(C(=O)OC)Nc2c([S+]([O-])C(F)(F)F)c(C#N)nn2-c2ccc(C(F)(F)F)c(Cl)c21 (stereo not drawn) [e-7] | 100% | 29% | 99% | 100% | 100% |  |  |  |  |  | 
7 | CC(=O)C1(C(=O)C(F)(F)F)Nc2c([S+]([O-])C(F)(F)F)c(C#N)nn2-c2cc(C(F)(F)F)cc(Cl)c21 (stereo not drawn) [c-39] | 89% | 24% | 90% | 95% | 100% |  |  |  |  |  | 
8 | CSc1nn2c(c1C#N)NC(F)(C(F)(F)F)c1ccccc1-2 (stereo not drawn) [Compound A25] |  |  |  |  |  | 100% | 38% | 100% | 100% | 100% | 
9 | CNC(=O)C1Nc2c([S+]([O-])C(F)(F)F)c(C(F)(F)F)nn2-c2c(Cl)cc(C(F)(F)F)cc21 (stereo not drawn) [d-109] | 85% | 28% | 85% | 96% | 99% |  |  |  |  |  | 
10 | COC(=O)C1(CC#N)Nc2c([S+]([O-])C(F)(F)F)c(C#N)nn2-c2ncc(C(F)(F)F)cc21 (stereo not drawn) [a-2] |  |  |  |  |  |  |  |  |  |  | Spodoptera exigua Mortality (%) 500 ppm [1]: 97%; Solenopsis invicta Mortality (%) 100 ppm 24 h ([2]; 24 h): 19%; Solenopsis invicta Mortality (%) 100 ppm 72 h ([2]; 72 h): 98%; Plutella xylostella Mortality (%) 500 ppm [3]: 97%; Aphis craccivora Mortality (%) 500 ppm [4]: 100%
11 | N#Cc1nn2c(c1[S+]([O-])C(F)(F)F)NC(C#N)(CC(=O)C(F)(F)F)c1cc(C(F)(F)F)cnc1-2 (stereo not drawn) [a-57] |  |  |  |  |  |  |  |  |  |  | Spodoptera exigua Mortality (%) 500 ppm [1]: 100%; Solenopsis invicta Mortality (%) 100 ppm 24 h ([2]; 24 h): 24%; Solenopsis invicta Mortality (%) 100 ppm 72 h ([2]; 72 h): 100%; Plutella xylostella Mortality (%) 500 ppm [3]: 100%; Aphis craccivora Mortality (%) 500 ppm [4]: 100%
12 | CCOC(=O)C1(CC(=O)OC(C(F)(F)F)C(F)(F)F)Nc2c([S+]([O-])C(F)(F)F)c(C#N)nn2-c2c(Cl)cc(C(F)(F)F)cc21 (stereo not drawn) [d-42] | 100% | 31% | 100% | 100% | 100% |  |  |  |  |  | 
13 | COC(=O)CC1(C#N)Nc2c([S+]([O-])C(F)(F)F)c(C#N)nn2-c2c(Cl)cc(C(F)(F)F)cc21 (stereo not drawn) [d-67] | 90% | 41% | 99% | 100% | 100% |  |  |  |  |  | 
14 | CNCC1(CC#N)Nc2c([S+](C)[O-])c(C(C)=O)nn2-c2c(Cl)cc(C(F)(F)F)cc21 (stereo not drawn) [Compound C42] |  |  |  |  |  | 94% | 20% | 70% | 91% | 100% | 
15 | N#Cc1nn2c(c1[S+]([O-])C(F)(F)F)NC(C#N)c1cc(C(F)(F)F)cnc1-2 (stereo not drawn) [a-72] |  |  |  |  |  |  |  |  |  |  | Spodoptera exigua Mortality (%) 500 ppm [1]: 89%; Solenopsis invicta Mortality (%) 100 ppm 24 h ([2]; 24 h): 20%; Solenopsis invicta Mortality (%) 100 ppm 72 h ([2]; 72 h): 91%; Plutella xylostella Mortality (%) 500 ppm [3]: 96%; Aphis craccivora Mortality (%) 500 ppm [4]: 100%
16 | CC[S+]([O-])c1c(C(F)(F)F)nn2c1NC(C(F)(F)F)(C(F)(F)F)c1ccc(N)cc1-2 (stereo not drawn) [Compound A14] |  |  |  |  |  | 90% | 26% | 93% | 100% | 100% | 
17 | N#Cc1nn2c(c1[S+]([O-])C(F)(F)F)NC(Cc1ccccc1)(C(=O)C(F)(F)F)c1c(Cl)cncc1-2 (stereo not drawn) [b-27] | 89% | 19% | 100% | 91% | 100% |  |  |  |  |  | 
18 | C=CC1(CCl)Nc2c([S+](C)[O-])c(C(C)=O)nn2-c2c(Cl)cc(C(F)(F)F)cc21 (stereo not drawn) [Compound C19] |  |  |  |  |  | 90% | 18% | 70% | 90% | 100% | 
19 | COC(=O)CC1(C(=O)OC)Nc2c(OC(F)(F)F)c(C#N)nn2-c2c(Cl)cc(C(F)(F)F)cc21 (stereo not drawn) [d-3] | 98% | 21% | 87% | 100% | 100% |  |  |  |  |  | 
20 | CSc1nn2c(c1C(=O)N(C)C)NC(F)(C(F)(F)F)c1ccccc1-2 (stereo not drawn) [Compound A29] |  |  |  |  |  | 100% | 26% | 95% | 100% | 100% | 
21 | CC(=O)C1(CC(=O)C(F)(F)F)Nc2c([S+]([O-])C(F)(F)F)c(C#N)nn2-c2cncc(Cl)c21 (stereo not drawn) [b-37] | 90% | 20% | 94% | 86% | 99% |  |  |  |  |  | 
22 | COC(=O)CC1(C(=O)OC)Nc2c([S+](C)[O-])c(C(C)=O)nn2-c2c(Cl)cc(C(F)(F)F)cc21 (stereo not drawn) [Compound C48] |  |  |  |  |  | 85% | 26% | 86% | 76% | 79% | 
23 | CC(=O)c1nn2c(c1[S+](C)[O-])NC(CO)(CC#N)c1cc(C(F)(F)F)cc(Cl)c1-2 (stereo not drawn) [Compound C27] |  |  |  |  |  | 86% | 27% | 86% | 76% | 100% | 
24 | N#Cc1nn2c(c1[S+]([O-])C(F)(F)F)NC(CCCl)(C(=O)C(F)(F)F)c1c(Cl)cc(C(F)(F)F)cc1-2 (stereo not drawn) [c-42] | 80% | 20% | 97% | 86% | 100% |  |  |  |  |  | 

Reference: US11401271B2, “Fused heterocyclic compound, pyrazole-ring-containing fused heterocyclic compound, agricultural composition containing thereof, and method of using the composition” (SOUTH CHINA AGRICULTURAL UNIVERSITY, priority 2017, dated 2022)
